Values belong to the compound of their own block, whether it stands above or below them.
Assays:
[1] = Metabolic stability in human liver microsomes assessed as compound remaining measured at 10 mins; type: ADME; details: read-out: Stability
[2] = Metabolic stability in rat liver microsomes assessed as compound remaining measured at 10 mins; type: ADME; details: read-out: Stability
Acyl-CoA desaturase 1 = target: T1, Acyl-CoA desaturase 1 (Rattus norvegicus, UniProt P07308); test: Inhibition of SCD1 in Sprague-Dawley rat liver microsomes using stearoyl-[9,10-3H]-CoA as substrate
T1 sequence (P07308 whole entry): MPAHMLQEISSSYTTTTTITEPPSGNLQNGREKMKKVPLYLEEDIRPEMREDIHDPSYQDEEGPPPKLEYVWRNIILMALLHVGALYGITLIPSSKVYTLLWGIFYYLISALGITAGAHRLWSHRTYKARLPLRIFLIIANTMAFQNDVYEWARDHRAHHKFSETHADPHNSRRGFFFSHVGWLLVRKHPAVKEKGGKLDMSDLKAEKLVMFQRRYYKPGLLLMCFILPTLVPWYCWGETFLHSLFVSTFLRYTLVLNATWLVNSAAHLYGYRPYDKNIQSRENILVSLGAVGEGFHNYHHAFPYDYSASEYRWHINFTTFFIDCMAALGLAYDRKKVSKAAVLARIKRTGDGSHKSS

Stearoyl-CoA desaturase = target: T2, Stearoyl-CoA desaturase (Homo sapiens, UniProt O00767); test: Inhibition of SCD1 in human A431 cells assessed as [13C]-palmitic acid conversion to [13C]-palmitoleic acid after 4 hrs by LC/MS analysis; type: cell-based, A-431
T2 sequence (O00767 whole entry): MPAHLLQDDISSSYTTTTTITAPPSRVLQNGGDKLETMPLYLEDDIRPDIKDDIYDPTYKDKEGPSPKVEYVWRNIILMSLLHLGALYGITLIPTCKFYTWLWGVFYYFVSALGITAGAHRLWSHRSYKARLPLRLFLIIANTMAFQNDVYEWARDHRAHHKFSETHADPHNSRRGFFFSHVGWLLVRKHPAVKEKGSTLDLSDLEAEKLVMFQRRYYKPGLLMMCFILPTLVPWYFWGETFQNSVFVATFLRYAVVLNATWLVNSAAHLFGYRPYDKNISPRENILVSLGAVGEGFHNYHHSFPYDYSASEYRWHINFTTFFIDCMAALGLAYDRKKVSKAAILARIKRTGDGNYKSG

Mus musculus [3] = test: Antiobesity activity in diet-induced obese C57BL/6 mouse assessed as change in body weight at 30 mg/kg, po qd for 10 days (reference value: 2.8 +/- 0.3 g); type: functional
[4] = AUC (24 hrs) in Sprague-Dawley rat at 10 mg/kg, po; type: ADME, organism-based; parameters: time < 24 hr, dose 10 mg/kg, route oral; details: plasma
Rattus norvegicus [5] = test: Antiobesity activity in Zucker fa/fa rat assessed as effect on body weight gain at 3 mg/kg measured on day 22 (reference value: 142 +/- 4 g); type: functional
Rattus norvegicus [6] = test: Hepatotoxicity in Zucker fa/fa rat assessed as increase in AST level at 1 to 10 mg/kg; type: toxicity, organism-based; parameters: dose 1-10 mg/kg; details: in vivo
Rattus norvegicus [7] = test: Antiobesity activity in Zucker fa/fa rat assessed as effect on body weight gain at 1 mg/kg measured on day 26 (reference value: 161 +/- 8 g); type: functional
Rattus norvegicus [8] = test: Antiobesity activity in Zucker fa/fa rat assessed as effect on body weight gain at 10 mg/kg measured on day 8 (reference value: 61 +/- 7 g); type: functional
[9] = Clearance in Sprague-Dawley rat at 2 mg/kg, iv; type: ADME, organism-based; parameters: dose 2 mg/kg, route intravenous; details: in vivo
Rattus norvegicus [10] = organism: Rattus norvegicus; test: Antiobesity activity in Zucker fa/fa rat assessed as reduction in body weight gain after 26 days; type: functional, organism-based
Rattus norvegicus [11] = test: Antiobesity activity in Zucker fa/fa rat assessed as effect on body weight gain at 10 mg/kg measured on day 15 (reference value: 103 +/- 4 g); type: functional
Rattus norvegicus [12] = test: Antiobesity activity in Zucker fa/fa rat assessed as reduction in body weight gain at 3 mg/kg after 26 days relative to control; type: functional; parameters: scale not given: the % may be the effect or the level left
Rattus norvegicus [13] = test: Antiobesity activity in Zucker fa/fa rat assessed as effect on body weight gain at 10 mg/kg measured on day 26 (reference value: 161 +/- 8 g); type: functional
Rattus norvegicus [14] = test: Antiobesity activity in Zucker fa/fa rat assessed as effect on body weight gain at 3 mg/kg measured on day 15 (reference value: 103 +/- 4 g); type: functional
Rattus norvegicus [15] = test: Antiobesity activity in Zucker fa/fa rat assessed as effect on body weight gain at 3 mg/kg measured on day 26 (reference value: 161 +/- 8 g); type: functional
Rattus norvegicus [16] = test: Toxicity in Zucker fa/fa rat assessed as reduction in food intake at 10 mg/kg after 22 days relative to control; type: organism-based; parameters: dose 10 mg/kg; scale not given: the % may be the effect or the level left; details: in vivo, 528 h
[17] = Cmax in Zucker fa/fa rat at 10 mg/kg, po; type: ADME, organism-based; parameters: dose 10 mg/kg, route oral; details: in vivo
Rattus norvegicus [18] = test: Antiobesity activity in Zucker fa/fa rat assessed as C16:1 to C16:0 plasma desaturation index at 3 mg/kg after 26 days (reference value: 0.183 +/- 0.012); type: functional
Rattus norvegicus [19] = test: Toxicity in Zucker fa/fa rat assessed as narrow eye fissure at 10 mg/kg; type: organism-based; parameters: dose 10 mg/kg; details: in vivo
Rattus norvegicus [20] = organism: Rattus norvegicus; test: Antiobesity activity in Zucker fa/fa rat assessed as decrease in C16:1 to C16:0 plasma desaturation index after 26 days; type: functional, organism-based
Rattus norvegicus [21] = test: Antiobesity activity in Zucker fa/fa rat assessed as effect on body weight gain at 1 mg/kg measured on day 8 (reference value: 61 +/- 7 g); type: functional
Rattus norvegicus [22] = test: Antiobesity activity in Zucker fa/fa rat assessed as reduction in body weight gain at 1 mg/kg after 26 days relative to control; type: functional; parameters: scale not given: the % may be the effect or the level left
Rattus norvegicus [23] = organism: Rattus norvegicus; test: Antiobesity activity in Zucker fa/fa rat assessed as decrease in C18:1 to C18:0 plasma desaturation index after 26 days; type: functional, organism-based
Rattus norvegicus [24] = test: Antiobesity activity in Zucker fa/fa rat assessed as effect on body weight gain at 3 mg/kg measured on day 8 (reference value: 61 +/- 7 g); type: functional
[25] = Volume of distribution in Sprague-Dawley rat at 2 mg/kg, iv; type: ADME, organism-based; parameters: dose 2 mg/kg, route intravenous; details: in vivo
Rattus norvegicus [26] = test: Toxicity in Zucker fa/fa rat assessed as change in food intake at 1 to 3 mg/kg after 26 days; type: organism-based; parameters: dose 1-3 mg/kg; details: in vivo, 624 h
Rattus norvegicus [27] = test: Antiobesity activity in Zucker fa/fa rat assessed as effect on body weight gain at 1 mg/kg measured on day 15 (reference value: 103 +/- 4 g); type: functional
[28] = Cmax in Sprague-Dawley rat at 10 mg/kg, po; type: ADME, organism-based; parameters: dose 10 mg/kg, route oral; details: in vivo
Rattus norvegicus [29] = test: Antiobesity activity in Zucker fa/fa rat assessed as reduction in body weight gain at 10 mg/kg after 26 days relative to control; type: functional; parameters: scale not given: the % may be the effect or the level left
Rattus norvegicus [30] = test: Antiobesity activity in Zucker fa/fa rat assessed as effect on body weight gain at 10 mg/kg measured on day 22 (reference value: 142 +/- 4 g); type: functional
Rattus norvegicus [31] = test: Antiobesity activity in Zucker fa/fa rat assessed as effect on body weight gain at 1 mg/kg measured on day 22 (reference value: 142 +/- 4 g); type: functional
Rattus norvegicus [32] = test: Antiobesity activity in Zucker fa/fa rat assessed as C18:1 to C18:0 plasma desaturation index at 10 mg/kg after 26 days (reference value: 2.16 +/- 0.07); type: functional
[33] = Oral bioavailability in Zucker fa/fa rat at 10 mg/kg; type: ADME, organism-based; details: in vivo
[34] = Oral bioavailability in Sprague-Dawley rat at 10 mg/kg; type: ADME, organism-based; details: in vivo
Mus musculus [35] = test: Toxicity in diet-induced obese C57BL/6 mouse assessed as narrow eye fissure at 30 mg/kg, po; type: organism-based; parameters: dose 30 mg/kg, route oral; details: in vivo
Rattus norvegicus [36] = test: Hepatotoxicity in Zucker fa/fa rat assessed as increase in ALT level at 1 to 10 mg/kg; type: toxicity, organism-based; parameters: dose 1-10 mg/kg; details: in vivo
[37] = AUC (24 hrs) in Zucker fa/fa rat at 10 mg/kg, po; type: ADME, organism-based; parameters: time < 24 hr, dose 10 mg/kg, route oral; details: plasma
Rattus norvegicus [38] = test: Antiobesity activity in Zucker fa/fa rat assessed as C16:1 to C16:0 plasma desaturation index at 10 mg/kg after 26 days (reference value: 0.183 +/- 0.012); type: functional

SMILES: CCOc1cnn(-c2ccc(N3CCC(N4CCc5ccc(F)cc54)CC3)nn2)c1
remaining at 10 min [1]: < 50% | IC50 (Acyl-CoA desaturase 1): 8 nM | IC50 (Stearoyl-CoA desaturase): 9 nM | remaining at 10 min [2]: < 50%

SMILES: OCc1cnn(-c2ccc(N3CCC(N4CCc5ccc(F)cc54)CC3)nn2)c1
IC50 (Acyl-CoA desaturase 1): 17 nM | IC50 (Stearoyl-CoA desaturase): 6 nM | Activity (Mus musculus [3]): 1.2 g

SMILES: Cc1ccc(-c2ccc(N3CCC(N4CCc5ccc(F)cc54)CC3)nn2)cn1
IC50 (Acyl-CoA desaturase 1): 13 nM

SMILES: Cc1ccc(-c2ccc(N3CCC(N4CCc5ccc(F)cc54)CC3)nn2)cc1
IC50 (Stearoyl-CoA desaturase): 11 nM

SMILES: Cn1cc(-c2ccc(N3CCC(N4CCc5ccc(F)cc54)CC3)nn2)cn1
AUC at 24 h [4]: 38800 ng·h/mL | Activity (Rattus norvegicus [5]): 112 g | Activity (Rattus norvegicus [6]): Non-toxic | Activity (Rattus norvegicus [7]): 133 g | Activity (Rattus norvegicus [8]): 29 g | clearance [9]: 3.3 mL/min/kg | Activity (Rattus norvegicus [10]): Dose-dependent effect | Activity (Rattus norvegicus [11]): 57 g | Activity (Rattus norvegicus [12]): 22% | Activity (Rattus norvegicus [13]): 78 g | Activity (Rattus norvegicus [14]): 80 g | Activity (Rattus norvegicus [15]): 125 g | Activity (Rattus norvegicus [16]): 10% | Cmax [17]: 1600 ng/mL | Activity (Rattus norvegicus [18]): 0.088 | Activity (Rattus norvegicus [19]): Toxic | Activity (Rattus norvegicus [20]): Dose-dependent effect | Activity (Rattus norvegicus [21]): 42 g | Activity (Rattus norvegicus [22]): 17% | Activity (Rattus norvegicus [23]): Dose-dependent effect | Activity (Rattus norvegicus [24]): 44 g | Vd [25]: 0.52 L/kg | Activity (Rattus norvegicus [26]): Non-toxic | Activity (Rattus norvegicus [27]): 80 g | Cmax [28]: 4400 ng/mL | Activity (Rattus norvegicus [29]): 51% | Activity (Rattus norvegicus [30]): 72 g | Activity (Rattus norvegicus [31]): 116 g | Activity (Mus musculus [3]): -2.1 g | Activity (Rattus norvegicus [32]): 0.92 | bioavailability [33]: 11% | bioavailability [34]: 105% | Activity (Mus musculus [35]): Toxic | Activity (Rattus norvegicus [36]): Non-toxic | AUC at 24 h [37]: 10800 ng·h/mL | Activity (Rattus norvegicus [38]): 0.078

SMILES: Cc1cnc(-c2ccc(N3CCC(N4CCc5ccc(F)cc54)CC3)nn2)s1
IC50 (Stearoyl-CoA desaturase): 12 nM

SMILES: OCc1ccc(-c2ccc(N3CCC(N4CCc5ccc(F)cc54)CC3)nn2)cn1
Activity (Mus musculus [3]): -2.2 g

SMILES: CN(C)c1ccc(-c2ccc(N3CCC(N4CCc5ccc(F)cc54)CC3)nn2)cn1
IC50 (Acyl-CoA desaturase 1): 17 nM | IC50 (Stearoyl-CoA desaturase): 30 nM

SMILES: Cn1cc(-c2ccc(N3CCC(n4ncc5ccc(F)cc54)CC3)nn2)cn1
IC50 (Stearoyl-CoA desaturase): 51 nM | Activity (Mus musculus [3]): -3.3 g

Continued, in another order:

remaining at 10 min [1]: < 50% | remaining at 10 min [2]: < 50%
SMILES: CCOCCn1cc(-c2ccc(N3CCC(N4CCc5ccc(F)cc54)CC3)nn2)cn1

IC50 (Stearoyl-CoA desaturase): 30 nM
SMILES: CCn1cc(-c2ccc(N3CCC(N4CCc5ccc(F)cc54)CC3)nn2)cn1

remaining at 10 min [1]: < 50% | remaining at 10 min [2]: < 50%
SMILES: CCCn1cc(-c2ccc(N3CCC(N4CCc5ccc(F)cc54)CC3)nn2)cn1

IC50 (Acyl-CoA desaturase 1): 22 nM
SMILES: OCCn1cc(-c2ccc(N3CCC(N4CCc5ccc(F)cc54)CC3)nn2)cn1
Activity (Mus musculus [3]): 0.5 g
